From patent US5763444A, “Antidepressant 1-arylalkyl-4-(alkoxy pyridinyl)-and 4-(alkoxypyrimidinyl) piperazine derivatives” (Bristol-Myers Squibb Company, priority 1996, dated 1998)
Structures can show the parent of a compound that is named as a salt.

target: T1, synaptosomal serotonin uptake (Rattus norvegicus, UniProt P31652); test: inhibition of synaptosomal reuptake of tritiated serotonin (5-HT inhibition assay); type: biochemical; parameters: key: *: Compounds designated with an asterisk are most preferred, based on abilities to inhibit synoptosomal serotonin uptake; details: among compounds with IC50 less than 100 nM
T1 construct: from tissue
Method: Determination of endogenous monoaminergic re-uptake inhibition values both for serotonin and norepinephrine was accomplished using test methods described by P. Skolnick, et al., Br. J. Pharmacology, (1985), 86, pp. 637-644; with only minor modifications. In vitro IC50 (nM) test values were determined for representative compounds of Formula I based on their inhibition of synaptosomal re-uptake of tritiated serotonin.
Compounds of the invention were tested for their ability to inhibit serotonin reuptake. Determination of endogenous monoaminergic reuptake inhibition values for serotonin was accomplished using test methods described by P. Skolnick et al., Br. J. Pharmacology (1985), 86, pp. 637-644; with only minor modifications.
In vitro IC50 (nM) test values were determined for representative compounds of Formula I based on their inhibition of synaptosomal reuptake of tritiated serotnin.

T1 sequence (P31652 whole entry): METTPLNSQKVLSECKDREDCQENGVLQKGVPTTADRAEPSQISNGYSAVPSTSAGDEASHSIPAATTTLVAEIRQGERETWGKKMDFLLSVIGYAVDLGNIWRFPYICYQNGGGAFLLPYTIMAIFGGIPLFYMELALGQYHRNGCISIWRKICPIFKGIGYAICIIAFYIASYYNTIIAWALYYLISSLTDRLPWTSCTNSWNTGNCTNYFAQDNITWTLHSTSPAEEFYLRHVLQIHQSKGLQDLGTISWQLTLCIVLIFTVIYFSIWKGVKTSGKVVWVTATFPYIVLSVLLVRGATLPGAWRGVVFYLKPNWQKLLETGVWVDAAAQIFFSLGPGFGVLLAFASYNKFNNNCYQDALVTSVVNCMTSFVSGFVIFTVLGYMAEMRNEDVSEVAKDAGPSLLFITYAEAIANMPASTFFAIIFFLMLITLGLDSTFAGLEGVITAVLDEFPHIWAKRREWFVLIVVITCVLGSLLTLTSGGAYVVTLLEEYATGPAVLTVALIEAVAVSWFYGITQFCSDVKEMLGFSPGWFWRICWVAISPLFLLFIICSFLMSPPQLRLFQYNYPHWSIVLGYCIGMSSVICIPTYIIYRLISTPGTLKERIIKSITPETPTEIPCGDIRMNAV

Row | SMILES | asterisk designation: most preferred, based on ability to inhibit synaptosomal serotonin uptake
1 | COc1cccnc1N1CCN(CCC2CSc3ccccc32)C(C)C1.Cl (stereo not shown) [Example 6, 1-[2-(2,3-dihydro-benzo[b]thien-3-yl)ethyl]-4-(3-methoxy-2-pyridinyl)-2-methylpiperazine hydrochloride] | *
2 | COc1cccnc1N1CCN(CCCC2CSc3ccccc32)C(C)C1 (stereo not shown) [Example 7, hydrochloride] | *
3 | COc1cccnc1N1CCN(CCC2CSc3ccccc32)CC1.Cl (stereo not shown) [Example 17, 1-[2-(2,3-dihydro-benzo[b]thien-3-yl)ethyl]-4-(3-methoxy-2-pyridinyl)piperazine hydrochloride] | *
4 | COc1cccnc1N1CCN(CCCc2coc3ccc(F)cc23)CC1.Cl [Example 20, 1-[3-(5-fluorobenzo[b]furan-3-yl)propyl]-4-(3-methoxy-2-pyridinyl)piperazine hydrochloride] | *
5 | COc1cccnc1N1CCN(CCCc2coc3ccc(Cl)cc23)CC1.Cl [Example 25, 1-[3-(5-chlorobenzo[b]furan-3-yl)propyl]-4-(3-methoxy-2-pyridinyl)piperazine hydrochloride] | *
6 | COc1cncnc1N1CCN(CCCc2coc3ccc(Cl)cc23)C(C)C1.Cl (stereo not shown) [Example 27, 1-[3-(5-chlorobenzo[b]furan-3-yl)propyl]-4-(5-methoxy-4-pyrimidinyl)-2-methylpiperazine hydrochloride] | *
7 | COc1cncnc1N1CCN(CCCc2coc3ccccc23)CC1C.Cl (stereo not shown) [Example 28, 1-[3-(benzo[b]furan-3-yl)propyl]-4-(5-methoxy-4-pyrimidinyl)-3-methylpiperazine hydrochloride] | *
8 | COc1cccnc1N1CCN(CCCc2coc3ccc(C)cc23)CC1.Cl [Example 29, 1-[3-(5-methylbenzo[b]furan-3-yl)propyl]-4-(3-methoxy-2-pyridinyl)piperazine hydrochloride] | *
9 | COc1cncnc1N1CCN(CCCc2coc3ccc(C)cc23)C(C)C1.Cl (stereo not shown) [Example 30, 1-[3-(5-methylbenzo[b]furan-3-yl)propyl]-4-(5-methoxy-4-pyrimidinyl)-2-methylpiperazine hydrochloride] | *
10 | COc1cccnc1N1CCN(CCCc2coc3ccccc23)CC1.Cl [Example 31, 1-[3-(benzo[b]furan-3-yl)propyl]-4-(3-methoxy-2-pyridinyl)piperazine hydrochloride] | *
11 | COc1cncnc1N1CCN(CCCc2coc3ccccc23)C(C)C1 (stereo not shown) [Example 32, 1-[3-(benzo[b]furan-3-yl)propyl]-4-(5-methoxy-4-pyrimidinyl-2-methylpiperazine hydrochloride] | *
12 | COc1cccnc1N1CCN(CCc2coc3ccccc23)CC1.Cl [Example 33, 1-[2-(benzo[b]furan-3-yl)ethyl]-4-(3-methoxy-2-pyridinyl)piperazine hydrochloride] | *
13 | COc1cccnc1N1CCN(CCCc2csc3ccccc23)C(C)C1.Cl (stereo not shown) [Example 41, 1-[3-(benzo[b]thien-3-yl)propyl]-4-(3-methoxy-2-pyridinyl)-2-methylpiperazine hydrochloride] | *
14 | COc1cncnc1N1CCN(CCCc2csc3ccccc23)C(C)C1.Cl (stereo not shown) [Example 50, 1-[3-(benzo[b]thien-3-yl)propyl]-4-(5-methoxy-4-pyrimidinyl)-2-methylpiperazine hydrochloride] | *
15 | COc1cncnc1N1CCN(CCCc2csc3ccccc23)CC1C.Cl (stereo not shown) [Example 51, 1-[3-(benzo[b]thien-3-yl)propyl]-4-(5-methoxy-4-pyrimidinyl)-3-methylpiperazine hydrochloride] | *
16 | COc1cncnc1N1CCN(CCCc2csc3ccc(F)cc23)CC1.Cl [Example 52, 1-[3-(5-fluorobenzo[b]thien-3-yl)propyl]-4-(5-methoxy-4-pyrimidinyl)piperazine hydrochloride] | *
17 | COc1cncnc1N1CCN(CCCc2csc3ccc(F)cc23)CC1C.Cl (stereo not shown) [Example 55, 1-[3-(5-fluorobenzo[b]thien-3-yl)propyl]-4-(5-methoxy-4-pyrimidinyl)-3-methylpiperazine hydrochloride] | *
18 | COc1cccnc1N1CCN(CCCc2csc3ccccc23)CC1.O=C(O)/C=C/C(=O)O [Example 56, 1-[3-(benzo[b]thien-3-yl)propyl]-4-(3-methoxy-2-pyridinyl)piperazine fumarate] | *
19 | COc1cccnc1N1CCN(CCc2csc3ccccc23)CC1.Cl [Example 57, 1-[2-(benzo[b]thien-3-yl)ethyl]-4-(3-methoxy-2-pyridinyl)piperazine hydrochloride] | *
20 | COc1cccnc1N1CCN(CCc2csc3ccccc23)C(C)C1.Cl (stereo not shown) [Example 58, 1-[2-(benzo[b]thien-3-yl)ethyl]-4-(3-methoxy-2-pyridinyl)-2-methylpiperazine hydrochloride] | *
21 | COc1cncnc1N1CCN(CCCc2csc3ccccc23)CC1.Cl [Example 59, 1-[3-(benzo[b]thien-3-yl)propyl]-4-(5-methoxy-4-pyrimidinyl)piperazine hydrochloride] | *
22 | COc1cc(Cl)cnc1N1CCN(CCCc2csc3ccccc23)C(C)C1.Cl (stereo not shown) [Example 60, 1-[3-(benzo[b]thien-3-yl)propyl]-4-(5-chloro-3-methoxy-2-pyridinyl)-2-methylpiperazine hydrochloride] | *
23 | COc1cncnc1N1CCN(CCCc2csc3ccc(F)cc23)C(C)C1.Cl (stereo not shown) [Example 63, 1-[3-(5-fluorobenzo[b]thien-3-yl)propyl]-4-(5-methoxy-4-pyrimidinyl)-2-methylpiperazine hydrochloride] | *
24 | COc1cncnc1N1CCN(CCc2csc3ccccc23)CC1C.Cl (stereo not shown) [Example 64, 1-[2-(benzo[b]thien-3-yl)ethyl]-4-(5-methoxy-4-pyrimidinyl)-3-methylpiperazine hydrochloride] | *
25 | COc1cncnc1N1CCN(CCCc2csc3ccc(C#N)cc23)CC1.Cl [Example 65, 1-[3-(5-cyanobenzo[b]thien-3-yl)propyl]-4-(5-methoxy-4-pyrimidinyl)piperazine hydrochloride] | *
